Assay results taken from ChEMBL document CHEMBL4715821, “Discovery of 4-ethoxy-7H-pyrrolo[2,3-d]pyrimidin-2-amines as potent, selective and orally bioavailable LRRK2 inhibitors” (Bioorg Med Chem Lett, 2018).

Tests used:
[1] = molecular target: LIM domain kinase 1 (Homo sapiens) (UniProt P53667); test: Inhibition of wild-type human full length LIMK1 (M1 to D647 residues) expressed in bacterial expression system assessed as residual activity at 1 uM by Kinomescan method relative to control
[2] = molecular target: MAP kinase-activated protein kinase 5 (Homo sapiens) (UniProt Q8IW41); test: Inhibition of wild-type human partial length MAPKAPK5 (M1 to D322 residues) expressed in mammalian expression system assessed as residual activity at 1 uM by Kinomescan method relative to control
[3] = molecular target: Mitogen-activated protein kinase kinase kinase kinase 1 (Homo sapiens) (UniProt Q92918); test: Inhibition of wild-type human full length HPK1 (M1 to R799 residues) expressed in bacterial expression system assessed as residual activity at 1 uM by Kinomescan method relative to control
[4] = molecular target: Serine/threonine-protein kinase Sgk3 (Homo sapiens) (UniProt Q96BR1); test: Inhibition of wild-type human partial length SGK3 (M119 to L496 residues) expressed in mammalian expression system assessed as residual activity at 1 uM by Kinomescan method relative to control
[5] = molecular target: Mitogen-activated protein kinase 15 (Homo sapiens) (UniProt Q8TD08); test: Inhibition of ERK7 (unknown origin) assessed as residual activity at 1 uM by Kinomescan method relative to control
[6] = molecular target: Serine/threonine-protein kinase 32B (Homo sapiens) (UniProt Q9NY57); test: Inhibition of wild-type human full length YANK2 (M1 to S414 residues) expressed in bacterial expression system assessed as residual activity at 1 uM by Kinomescan method relative to control
[7] = molecular target: Tyrosine-protein kinase ABL1 (Homo sapiens) (UniProt P00519); test: Inhibition of human ABL1 expressed in mammalian expression system assessed as residual activity at 1 uM by Kinomescan method relative to control
[8] = Metabolic stability in human liver microsomes assessed as intrinsic clearance; format: ADME, Microsome
[9] = molecular target: Vascular endothelial growth factor receptor 1 (Homo sapiens) (UniProt P17948); test: Inhibition of wild-type human partial length FLT1 (R781 to F1239 residues) expressed in bacterial expression system assessed as residual activity at 1 uM by Kinomescan method relative to control
[10] = molecular target: 3-phosphoinositide-dependent protein kinase 1 (Homo sapiens) (UniProt O15530); test: Inhibition of PDK1 (unknown origin) assessed as residual activity at 1 uM by Kinomescan method relative to control
[11] = molecular target: cAMP-dependent protein kinase catalytic subunit PRKX (Homo sapiens) (UniProt P51817); test: Inhibition of wild-type human partial length PRKX (M1 to F358 residues) expressed in bacterial expression system assessed as residual activity at 1 uM by Kinomescan method relative to control
[12] = molecular target: CDC7/DBF4 (Cell division cycle 7-related protein kinase/Activator of S phase kinase) (Homo sapiens) (UniProt Q9UBU7+O00311); test: Inhibition of CDC7/DBF4 (unknown origin) assessed as residual activity at 1 uM by Kinomescan method relative to control; format: protein-complex assay
[13] = In vivo inhibition of LRRK2 in Han-Wistar rat assessed as reduction in Ser935 phosphorylation in spleen at 10 to 100 mg/kg, po by Western blot analysis; format: functional; parameters: scale not given: the % may be the effect or the level left; conditions: dose 10-100 mg/kg
[14] = molecular target: Protein kinase C iota type (Homo sapiens) (UniProt P41743); test: Inhibition of PKCiota (unknown origin) assessed as residual activity at 1 uM by Kinomescan method relative to control
[15] = molecular target: MAP/microtubule affinity-regulating kinase 3 (Homo sapiens) (UniProt P27448); test: Inhibition of wild-type human full length MARK3 (M1 to L729 residues) expressed in bacterial expression system assessed as residual activity at 1 uM by Kinomescan method relative to control
[16] = molecular target: Tyrosine-protein kinase Fgr (Homo sapiens) (UniProt P09769); test: Inhibition of wild-type human partial length FGR (L233 to T529 residues) expressed in bacterial expression system assessed as residual activity at 1 uM by Kinomescan method relative to control
[17] = molecular target: Ribosomal protein S6 kinase alpha-4 (Homo sapiens) (UniProt O75676); test: Inhibition of wild-type human partial length N-terminal RPS6KA4 kinase domain 1 expressed in bacterial expression system assessed as residual activity at 1 uM by Kinomescan method relative to control
[18] = molecular target: Interleukin-1 receptor-associated kinase 1 (Homo sapiens) (UniProt P51617); test: Inhibition of wild-type human partial length IRAK1 (R194 to S712 residues) expressed in mammalian expression system assessed as residual activity at 1 uM by Kinomescan method relative to control
[19] = molecular target: Mitogen-activated protein kinase kinase kinase 7 (Homo sapiens) (UniProt O43318); test: Inhibition of wild-type human partial length TAK1 (M1 to Q303 residues) expressed in mammalian expression system assessed as residual activity at 1 uM by Kinomescan method relative to control
[20] = Permeability ratio across apical side to basolateral side in MDCK2 cells transfected with Bacmam virus containing human BCRP at 3 uM after 90 mins in presence or absence of GF120918 by transwell assay; format: ADME, cell-based, Canis lupus familiaris; conditions: dog, mdck-ii, 1.5 h
[21] = molecular target: High affinity nerve growth factor receptor (Homo sapiens) (UniProt P04629); test: Inhibition of wild-type human partial length TRKA (G475 to G790 residues) expressed in mammalian expression system assessed as residual activity at 1 uM by Kinomescan method relative to control
[22] = molecular target: RAF proto-oncogene serine/threonine-protein kinase (Homo sapiens) (UniProt P04049); test: Inhibition of wild-type human partial length RAF1 (I330 to T640 residues) expressed in bacterial expression system assessed as residual activity at 1 uM by Kinomescan method relative to control
[23] = molecular target: Receptor tyrosine-protein kinase erbB-4 (Homo sapiens) (UniProt Q15303); test: Inhibition of wild-type human partial length ERBB4 (L690 to K994 residues) expressed in bacterial expression system assessed as residual activity at 1 uM by Kinomescan method relative to control
[24] = molecular target: Mitogen-activated protein kinase 11 (Homo sapiens) (UniProt Q15759); test: Inhibition of wild-type human full length p38-beta (M1 to Q364 residues) expressed in bacterial expression system assessed as residual activity at 1 uM by Kinomescan method relative to control
[25] = molecular target: Tyrosine-protein kinase Lyn (Homo sapiens) (UniProt P07948); test: Inhibition of human LYN B assessed as residual activity at 1 uM by Kinomescan method relative to control
[26] = molecular target: Serine/threonine-protein kinase PAK 2 (Homo sapiens) (UniProt Q13177); test: Inhibition of wild-type human partial length PAK2 (P151 to R525 residues) expressed in bacterial expression system assessed as residual activity at 1 uM by Kinomescan method relative to control
[27] = molecular target: Serine/threonine-protein kinase N2 (Homo sapiens) (UniProt Q16513); test: Inhibition of wild-type human partial length PKN2 (E634 to C984 residues) expressed in bacterial expression system assessed as residual activity at 1 uM by Kinomescan method relative to control

Chain of Protein kinase C iota type (Homo sapiens) (P41743 whole entry, the tested form may be a part): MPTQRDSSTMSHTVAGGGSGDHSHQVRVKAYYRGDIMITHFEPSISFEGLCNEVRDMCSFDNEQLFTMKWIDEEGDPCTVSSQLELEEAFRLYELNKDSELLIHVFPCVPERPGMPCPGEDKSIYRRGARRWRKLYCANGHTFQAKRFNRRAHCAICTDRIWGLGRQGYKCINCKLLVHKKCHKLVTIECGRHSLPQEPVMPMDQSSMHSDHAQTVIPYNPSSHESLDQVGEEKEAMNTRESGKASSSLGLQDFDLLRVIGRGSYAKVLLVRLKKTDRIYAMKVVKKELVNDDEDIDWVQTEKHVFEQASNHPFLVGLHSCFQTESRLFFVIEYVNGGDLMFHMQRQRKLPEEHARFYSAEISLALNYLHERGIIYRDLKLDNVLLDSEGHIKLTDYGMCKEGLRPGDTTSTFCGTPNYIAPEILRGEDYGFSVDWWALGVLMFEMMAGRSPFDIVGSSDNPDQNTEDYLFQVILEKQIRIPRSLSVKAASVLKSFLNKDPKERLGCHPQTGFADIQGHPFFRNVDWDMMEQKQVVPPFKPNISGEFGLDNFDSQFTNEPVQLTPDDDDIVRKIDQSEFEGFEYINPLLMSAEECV
Chain of RAF proto-oncogene serine/threonine-protein kinase (Homo sapiens) (P04049 whole entry, the tested form may be a part): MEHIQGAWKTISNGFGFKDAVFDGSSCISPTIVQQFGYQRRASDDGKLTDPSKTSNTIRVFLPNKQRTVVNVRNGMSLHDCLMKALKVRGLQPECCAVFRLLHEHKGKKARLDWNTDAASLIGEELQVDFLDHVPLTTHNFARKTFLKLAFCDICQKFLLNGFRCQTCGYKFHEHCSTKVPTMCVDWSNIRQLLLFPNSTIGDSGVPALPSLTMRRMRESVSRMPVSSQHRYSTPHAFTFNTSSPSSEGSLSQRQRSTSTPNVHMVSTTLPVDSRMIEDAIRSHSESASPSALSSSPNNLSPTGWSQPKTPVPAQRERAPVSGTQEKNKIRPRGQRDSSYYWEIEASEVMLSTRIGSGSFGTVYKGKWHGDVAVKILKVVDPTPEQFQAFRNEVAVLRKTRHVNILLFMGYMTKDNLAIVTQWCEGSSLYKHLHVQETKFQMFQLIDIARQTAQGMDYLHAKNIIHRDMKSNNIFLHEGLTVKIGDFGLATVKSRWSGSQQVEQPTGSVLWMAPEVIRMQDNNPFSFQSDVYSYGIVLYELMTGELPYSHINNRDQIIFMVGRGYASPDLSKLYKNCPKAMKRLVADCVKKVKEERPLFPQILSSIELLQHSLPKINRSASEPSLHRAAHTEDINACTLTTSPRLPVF
Chain of Receptor tyrosine-protein kinase erbB-4 (Homo sapiens) (Q15303 whole entry, the tested form may be a part): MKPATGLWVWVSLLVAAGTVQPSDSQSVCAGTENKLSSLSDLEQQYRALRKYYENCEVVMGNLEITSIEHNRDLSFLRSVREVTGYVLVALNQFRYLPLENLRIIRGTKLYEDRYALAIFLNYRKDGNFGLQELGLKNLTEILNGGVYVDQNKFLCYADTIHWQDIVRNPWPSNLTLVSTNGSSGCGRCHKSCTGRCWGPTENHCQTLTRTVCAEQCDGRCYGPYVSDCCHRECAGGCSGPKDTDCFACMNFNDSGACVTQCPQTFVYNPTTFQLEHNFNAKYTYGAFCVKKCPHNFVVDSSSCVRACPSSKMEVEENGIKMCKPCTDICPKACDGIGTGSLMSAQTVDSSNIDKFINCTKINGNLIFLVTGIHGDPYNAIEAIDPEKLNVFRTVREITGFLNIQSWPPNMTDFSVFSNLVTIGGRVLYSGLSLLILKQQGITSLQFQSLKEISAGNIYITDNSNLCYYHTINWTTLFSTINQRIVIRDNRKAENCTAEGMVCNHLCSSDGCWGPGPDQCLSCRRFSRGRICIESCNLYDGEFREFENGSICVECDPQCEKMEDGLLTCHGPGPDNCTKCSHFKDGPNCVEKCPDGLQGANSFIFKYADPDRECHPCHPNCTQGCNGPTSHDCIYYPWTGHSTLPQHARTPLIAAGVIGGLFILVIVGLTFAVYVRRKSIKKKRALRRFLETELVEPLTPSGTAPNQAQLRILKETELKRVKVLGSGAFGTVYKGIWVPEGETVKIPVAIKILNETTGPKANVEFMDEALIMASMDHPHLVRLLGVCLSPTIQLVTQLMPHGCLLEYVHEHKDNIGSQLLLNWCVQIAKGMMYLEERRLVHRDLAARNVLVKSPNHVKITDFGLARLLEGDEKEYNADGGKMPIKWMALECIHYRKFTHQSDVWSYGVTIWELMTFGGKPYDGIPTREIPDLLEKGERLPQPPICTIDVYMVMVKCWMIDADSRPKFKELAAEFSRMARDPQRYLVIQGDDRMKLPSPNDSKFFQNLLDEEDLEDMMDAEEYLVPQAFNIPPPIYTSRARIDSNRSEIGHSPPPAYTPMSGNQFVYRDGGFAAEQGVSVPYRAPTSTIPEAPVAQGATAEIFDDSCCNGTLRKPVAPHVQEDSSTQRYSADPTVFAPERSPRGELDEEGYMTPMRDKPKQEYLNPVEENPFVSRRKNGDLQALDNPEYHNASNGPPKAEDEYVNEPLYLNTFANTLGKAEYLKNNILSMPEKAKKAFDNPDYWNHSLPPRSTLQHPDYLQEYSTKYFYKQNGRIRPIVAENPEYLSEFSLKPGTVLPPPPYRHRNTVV
Chain of MAP kinase-activated protein kinase 5 (Homo sapiens) (Q8IW41 whole entry, the tested form may be a part): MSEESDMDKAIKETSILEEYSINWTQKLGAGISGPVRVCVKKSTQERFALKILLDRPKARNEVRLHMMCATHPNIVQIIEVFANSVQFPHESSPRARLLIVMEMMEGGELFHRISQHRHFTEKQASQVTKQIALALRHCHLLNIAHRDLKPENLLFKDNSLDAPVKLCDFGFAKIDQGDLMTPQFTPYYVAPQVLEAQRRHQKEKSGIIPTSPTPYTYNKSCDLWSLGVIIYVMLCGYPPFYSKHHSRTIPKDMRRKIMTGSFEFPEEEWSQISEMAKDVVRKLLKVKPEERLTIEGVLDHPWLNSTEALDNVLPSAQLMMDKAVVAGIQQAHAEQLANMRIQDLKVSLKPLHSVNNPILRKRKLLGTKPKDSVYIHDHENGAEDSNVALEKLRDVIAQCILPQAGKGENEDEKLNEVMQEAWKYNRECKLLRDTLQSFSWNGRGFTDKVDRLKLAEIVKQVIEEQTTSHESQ
Chain of Vascular endothelial growth factor receptor 1 (Homo sapiens) (P17948 whole entry, the tested form may be a part): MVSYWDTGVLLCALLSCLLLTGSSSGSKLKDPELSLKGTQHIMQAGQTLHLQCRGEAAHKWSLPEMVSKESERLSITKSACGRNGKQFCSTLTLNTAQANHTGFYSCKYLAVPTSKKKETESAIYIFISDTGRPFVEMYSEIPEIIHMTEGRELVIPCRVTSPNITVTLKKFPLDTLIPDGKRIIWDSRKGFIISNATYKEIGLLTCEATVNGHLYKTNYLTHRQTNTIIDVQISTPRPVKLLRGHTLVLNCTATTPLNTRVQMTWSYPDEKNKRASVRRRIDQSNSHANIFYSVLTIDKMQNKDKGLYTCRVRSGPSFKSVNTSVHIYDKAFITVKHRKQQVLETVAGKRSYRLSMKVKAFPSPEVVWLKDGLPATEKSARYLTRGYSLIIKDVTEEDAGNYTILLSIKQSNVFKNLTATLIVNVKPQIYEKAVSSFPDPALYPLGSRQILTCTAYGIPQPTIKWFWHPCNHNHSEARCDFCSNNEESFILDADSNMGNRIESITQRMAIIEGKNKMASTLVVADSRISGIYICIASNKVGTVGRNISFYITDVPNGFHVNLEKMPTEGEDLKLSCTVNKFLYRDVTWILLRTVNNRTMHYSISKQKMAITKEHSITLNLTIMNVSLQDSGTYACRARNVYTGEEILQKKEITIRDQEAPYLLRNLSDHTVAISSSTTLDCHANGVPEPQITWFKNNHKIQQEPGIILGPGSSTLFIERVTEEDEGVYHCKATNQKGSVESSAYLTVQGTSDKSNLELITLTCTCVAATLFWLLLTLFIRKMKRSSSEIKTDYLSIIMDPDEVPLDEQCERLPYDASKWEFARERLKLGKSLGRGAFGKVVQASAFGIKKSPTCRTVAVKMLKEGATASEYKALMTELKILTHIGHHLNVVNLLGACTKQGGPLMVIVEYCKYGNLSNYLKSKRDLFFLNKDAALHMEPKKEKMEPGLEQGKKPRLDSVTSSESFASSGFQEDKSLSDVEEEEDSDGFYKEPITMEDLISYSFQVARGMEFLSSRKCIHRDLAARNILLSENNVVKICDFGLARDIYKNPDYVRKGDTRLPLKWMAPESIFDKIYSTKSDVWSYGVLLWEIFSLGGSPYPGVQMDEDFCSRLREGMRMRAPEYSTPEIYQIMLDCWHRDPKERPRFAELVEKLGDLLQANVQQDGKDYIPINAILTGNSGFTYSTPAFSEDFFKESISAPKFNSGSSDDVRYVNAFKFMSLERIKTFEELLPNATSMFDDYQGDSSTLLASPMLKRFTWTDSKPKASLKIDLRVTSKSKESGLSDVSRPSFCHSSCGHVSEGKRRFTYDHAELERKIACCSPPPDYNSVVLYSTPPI
Chain of Serine/threonine-protein kinase 32B (Homo sapiens) (Q9NY57 whole entry, the tested form may be a part): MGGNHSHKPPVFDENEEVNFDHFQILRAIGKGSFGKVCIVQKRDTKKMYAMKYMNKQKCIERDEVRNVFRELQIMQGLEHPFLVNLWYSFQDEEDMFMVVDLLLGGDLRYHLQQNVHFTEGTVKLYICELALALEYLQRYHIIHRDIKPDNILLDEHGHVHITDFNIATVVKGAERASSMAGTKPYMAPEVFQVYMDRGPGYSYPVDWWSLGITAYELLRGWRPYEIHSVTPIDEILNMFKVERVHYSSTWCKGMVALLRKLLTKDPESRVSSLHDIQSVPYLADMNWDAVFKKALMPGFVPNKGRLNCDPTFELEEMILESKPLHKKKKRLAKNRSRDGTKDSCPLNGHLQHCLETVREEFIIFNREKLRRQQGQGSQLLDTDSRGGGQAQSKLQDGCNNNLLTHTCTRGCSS

**Q.** Which results are given for `CCOc1nc(Nc2ccc(C(=O)N3CCOCC3)cc2OC)nc2[nH]ccc12`?
**A.** Activity [1]: 98%; Activity [2]: 81.8%; Activity [3]: 86.6%; Activity [4]: 93.7%; Activity [5]: 99%; Activity [6]: 100%; Activity [7]: 105%; CLH [8]: 1.1 mL/min/g; Activity [9]: 97.5%; Activity [10]: 93.1%; Activity [11]: 99.8%; Activity [12]: 102%; Activity [13]: 100%; Activity [14]: 96.5%; Activity [15]: 92.4%; Activity [16]: 104%; Activity [17]: 109%; Activity [18]: 105%; Activity [19]: 87.5%; Ratio [20]: 3.1; Activity [21]: 105%; Activity [22]: 97.5%; Activity [23]: 101%; Activity [24]: 101%; Activity [25]: 97.5%; Activity [26]: 95.3%; Activity [27]: 101%
